Experimental data as given in patent US7638508B2, “Glucocorticosteroid compound having anti-inflammatory activity” (Glaxo Group Limited, priority 2003, dated 2009).

biological target: T1, glucocorticoid receptor (Homo sapiens, UniProt P04150); assay: MMTV-LTR renilla luciferase reporter assay in A549 cells (direct transactivation of gene expression); type: cell-based; details: 6 hour at 37° C., read-out: maximal response relative to Dexamethasone (100%)
T1 sequence (P04150 1-777): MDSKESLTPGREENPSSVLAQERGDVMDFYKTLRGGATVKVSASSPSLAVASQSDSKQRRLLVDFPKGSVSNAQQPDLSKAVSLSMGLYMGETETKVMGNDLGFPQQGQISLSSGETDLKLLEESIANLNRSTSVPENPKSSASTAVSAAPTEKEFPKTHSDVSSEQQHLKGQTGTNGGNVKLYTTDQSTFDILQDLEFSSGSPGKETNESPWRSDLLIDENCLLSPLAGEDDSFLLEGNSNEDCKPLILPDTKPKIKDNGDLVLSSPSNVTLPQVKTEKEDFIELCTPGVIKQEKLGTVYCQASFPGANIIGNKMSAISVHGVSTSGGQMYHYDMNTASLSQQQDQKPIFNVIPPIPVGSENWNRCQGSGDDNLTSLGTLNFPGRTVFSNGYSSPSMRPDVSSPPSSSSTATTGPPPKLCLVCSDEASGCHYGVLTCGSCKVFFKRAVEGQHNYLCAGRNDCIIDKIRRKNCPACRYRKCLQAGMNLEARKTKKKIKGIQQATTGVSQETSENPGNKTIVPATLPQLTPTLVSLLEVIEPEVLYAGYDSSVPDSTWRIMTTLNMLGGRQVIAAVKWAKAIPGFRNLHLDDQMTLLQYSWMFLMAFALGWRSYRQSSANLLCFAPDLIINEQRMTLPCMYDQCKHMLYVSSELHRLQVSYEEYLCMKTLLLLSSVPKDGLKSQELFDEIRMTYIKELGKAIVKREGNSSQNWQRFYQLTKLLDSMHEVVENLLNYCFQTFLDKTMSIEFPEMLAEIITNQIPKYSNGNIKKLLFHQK
Method: Pharmacological activity may be assessed in functional in vitro assays of glucocorticoid agonist activity.
The functional assay based on that described by R. J. H. Austin et al., Eur Resp J. (2002), 20, 1386-1392 measures the ability of compounds to directly transactivate gene expression. A549 cells stably transfected with a reporter gene containing the glucocorticoid responsive region of the mouse mammary tumour virus long terminal repeat (MMTV-LTR) coupled to renilla luciferase were treated with test compounds at appropriate doses for 6 hour at 37° C. The amount of luciferase activity present within the cells is then determined by measuring the light emitted following incubation with a suitable substrate.

| SMILES | Emax |
| --- | --- |
| CC1CC2C3CC(F)C4=CC(=O)C=CC4(C)C3(F)C(O)CC2(C)C1(OC(=O)C1C(C)(C)C1(C)C)C(=O)SCC#N (stereo not drawn) [Example 1, 6α,9α-Difluoro-11β-hydroxy-16α-methyl-3-oxo-17α-(2,2,3,3-tetramethycyclopropylcarbonyl)oxy-androsta-1,4-diene-17β-carbothioic Acid S-cyanomethyl Ester] | < 35% |
| COc1c(C(=O)OC2(C(=O)SCC#N)C(C)CC3C4CC(F)C5=CC(=O)C=CC5(C)C4(F)C(O)CC32C)csc1Cl (stereo not drawn) [Example 3, 17α-(5-Chloro-4-methoxy-thiophene-3-carbonyl)oxy-6α,9α-difluoro-11β-hydroxy-16α-methyl-3-oxo-androsta-1,4-diene-17β-carbothioic Acid S-cyanomethyl Ester] | < 35% |
| CC1CC2C3CC(F)C4=CC(=O)C=CC4(C)C3(F)C(O)CC2(C)C1(OC(=O)c1c(F)cccc1F)C(=O)OCC#N (stereo not drawn) [Example 6, 6α,9α-Difluoro-17α-(2,6-difluorobenzoyl)oxy-11β-hydroxy-16α-methyl-3-oxo-androsta-1,4-diene-17β-carboxylic Acid cyanomethyl Ester] | < 35% |
| COc1ccc(C(=O)OC2(C(=O)OCC#N)C(C)CC3C4CC(F)C5=CC(=O)C=CC5(C)C4(F)C(O)CC32C)cc1 (stereo not drawn) [Example 7, 6α,9α-Difluoro-11β-hydroxy-17α-(4-methoxybenzoyl)oxy-16α-methyl-3-oxo-androsta-1,4-diene-17β-carboxylic Acid cyanomethyl Ester] | < 35% |
| CC1CC2C3CC(F)C4=CC(=O)C=CC4(C)C3(F)C(O)CC2(C)C1(OC(=O)CC1CCCC1)C(=O)OCC#N (stereo not drawn) [Example 9, 17α-(Cyclopentylmethylcarbonyl)oxy-6α,9α-difluoro-11β-hydroxy-16α-methyl-3-oxo-androsta-1,4-diene-17β-carboxylic Acid Cyanomethyl Ester] | < 35% |
| CC1CC2C3CC(F)C4=CC(=O)C=CC4(C)C3(F)C(O)CC2(C)C1(OC(=O)CC(C)(C)C)C(=O)OCC#N (stereo not drawn) [Example 10, 6α,9α-Difluoro-17α-(3,3-dimethylbutanoyl)oxy-11β-hydroxy-16α-methyl-3-oxo-androsta-1,4-diene-17β-carboxylic Acid Cyanomethyl Ester] | < 35% |
| CC1CC2C3CC(F)C4=CC(=O)C=CC4(C)C3(F)C(O)CC2(C)C1(OC(=O)c1ccc2ccccc2n1)C(=O)OCC#N (stereo not drawn) [Example 12, 6α,9α-Difluoro-11β-hydroxy-16α-methyl-3-oxo-17α-(quinoline-2-carbonyl)oxy-androsta-1,4-diene-17β-carboxylic Acid Cyanomethyl Ester] | < 35% |
| CC1CC2C3CC(F)C4=CC(=O)C=CC4(C)C3(F)C(O)CC2(C)C1(OC(=O)c1ccc(C(F)(F)F)o1)C(=O)OCC#N (stereo not drawn) [Example 13, 6α,9α-Difluoro-11β-hydroxy-16α-methyl-3-oxo-17α-(5-trifluoromethyl-furan-2-carbonyl)oxy-androsta-1,4-diene-17β-carboxylic Acid Cyanomethyl Ester] | < 35% |
| CC1CC2C3CC(F)C4=CC(=O)C=CC4(C)C3(F)C(O)CC2(C)C1(OC(=O)c1ccc(S(C)(=O)=O)s1)C(=O)OCC#N (stereo not drawn) [Example 14, 6α,9α-Difluoro-11β-hydroxy-16α-methyl-17α-(5-methylsulphonyl-thiophene-2-carbonyl)oxy-3-oxo-androsta-1,4-diene-17β-carboxylic Acid Cyanomethyl Ester] | < 35% |
| CCc1cc(C(=O)OC2(C(=O)OCC#N)C(C)CC3C4CC(F)C5=CC(=O)C=CC5(C)C4(F)C(O)CC32C)no1 (stereo not drawn) [Example 16, 6α,9α-Difluoro-17α-(5-ethyl-isoxazole-3-carbonyl)oxy-11β-hydroxy-16α-methyl-3-oxo-androsta-1,4-diene-17β-carboxylic Acid Cyanomethyl Ester] | < 35% |
| CC1CC2C3CCC4=CC(=O)C=CC4(C)C3(F)C(O)CC2(C)C1(OC(=O)C1C(C)(C)C1(C)C)C(=O)OCC#N (stereo not drawn) [Example 17, 9α-Fluoro-11β-hydroxy-16β-methyl-3-oxo-17α-(2,2,3,3-tetramethylcyclopropylcarbonyl)oxy-androsta-1,4-diene-17 b-carboxylic Acid cyanomethyl ester] | < 35% |
| COc1c(C(=O)OC2(C(=O)OCC#N)C(C)CC3C4CC(F)C5=CC(=O)C=CC5(C)C4(F)C(O)CC32C)csc1Cl (stereo not drawn) [Example 19, 17α-(5-Chloro-4-methoxy-thiophene-3-carbonyl)oxy-6α,9α-difluoro-11β-hydroxy-16α-methyl-3-oxo-androsta-1,4-diene-17β-carboxylic Acid Cyanomethyl Ester] | < 35% |
| CC1CC2C3CC(F)C4=CC(=O)C=CC4(C)C3(F)C(O)CC2(C)C1(OC(=O)C1C(C)(C)C1(Cl)Cl)C(=O)SCC#N (stereo not drawn) [Example 21, 17α-(22-Dichloro-3,3-dimethylclopropylcarbonyl)oxy-6α,9α-difluoro-11β-hydroxy-16α-methyl-3-oxo-androsta-1,4-diene-17β-carbothioic acid S-cyanomethyl Ester] | < 35% |
| CC1CC2C3CC(F)C4=CC(=O)C=CC4(C)C3(F)C(O)CC2(C)C1(OC(=O)C1CCCCC1)C(=O)SCC#N (stereo not drawn) [Example 22, 17α-(Cyclohexylcarbonyl)oxy-6α,9α-difluoro-1,1-hydroxy-16α-methyl-3-oxo-androsta-1,4-diene-17β-carbothioic Acid S-cyanomethyl Ester] | < 35% |
